Measured values from article PMC8763936 (Investigational New Drugs, 2021).
pIC50: −log10 of the molar value. Values joined by “and” are separate entries in the source; they are usually repeats but may differ in a detail not shown here. Equal values may be shown once. Read-outs that look alike come from different tables or passages of the source.

Key:
CYP2C8 = molecular target: T1, CYP2C8 (Homo sapiens, UniProt P10632); test: Metabolism by recombinantly expressed CYP enzymes
T1 sequence (P10632 1-490): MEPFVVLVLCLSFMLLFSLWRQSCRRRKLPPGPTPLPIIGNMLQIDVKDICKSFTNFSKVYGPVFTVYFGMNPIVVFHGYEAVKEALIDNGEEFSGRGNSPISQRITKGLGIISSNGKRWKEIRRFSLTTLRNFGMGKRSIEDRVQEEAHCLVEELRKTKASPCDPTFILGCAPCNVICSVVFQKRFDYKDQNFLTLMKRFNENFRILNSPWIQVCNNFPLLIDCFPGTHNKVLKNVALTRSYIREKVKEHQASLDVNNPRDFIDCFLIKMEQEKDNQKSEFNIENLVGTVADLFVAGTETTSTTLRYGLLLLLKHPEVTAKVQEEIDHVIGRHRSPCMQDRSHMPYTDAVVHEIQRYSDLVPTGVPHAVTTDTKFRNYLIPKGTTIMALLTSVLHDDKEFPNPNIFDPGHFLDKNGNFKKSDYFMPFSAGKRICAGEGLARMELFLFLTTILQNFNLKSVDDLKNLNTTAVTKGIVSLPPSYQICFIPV

MDR1 (P-gp) = molecular target: T2, MDR1 (P-gp) (Homo sapiens, UniProt P08183); test: In vitro P-gp inhibition; assay type: in vitro ADME
T2 construct: expressed in transfected cells

CYP1A1 = molecular target: T3, CYP1A1 (Homo sapiens, UniProt P04798); test: Metabolism by recombinantly expressed CYP enzymes; set-up: Entrectinib Metabolism to M5: key to the marks not given beside the values
T3 sequence (P04798 1-512): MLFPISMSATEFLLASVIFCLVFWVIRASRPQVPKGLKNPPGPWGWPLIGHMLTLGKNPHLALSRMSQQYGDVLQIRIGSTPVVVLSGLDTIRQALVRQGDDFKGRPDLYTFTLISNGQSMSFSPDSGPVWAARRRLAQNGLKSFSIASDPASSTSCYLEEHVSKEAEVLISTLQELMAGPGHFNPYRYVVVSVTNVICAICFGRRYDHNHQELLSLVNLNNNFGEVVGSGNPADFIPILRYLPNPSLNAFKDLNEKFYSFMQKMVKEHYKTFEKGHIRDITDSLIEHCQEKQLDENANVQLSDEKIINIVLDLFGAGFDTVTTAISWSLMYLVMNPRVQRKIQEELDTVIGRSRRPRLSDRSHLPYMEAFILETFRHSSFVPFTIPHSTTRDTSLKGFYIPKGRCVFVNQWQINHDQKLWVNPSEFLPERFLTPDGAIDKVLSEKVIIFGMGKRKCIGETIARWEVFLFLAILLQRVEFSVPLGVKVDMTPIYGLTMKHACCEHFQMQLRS

CYP2B6 = molecular target: T4, CYP2B6 (Homo sapiens, UniProt P20813); test: Metabolism by recombinantly expressed CYP enzymes
T4 sequence (P20813 1-491): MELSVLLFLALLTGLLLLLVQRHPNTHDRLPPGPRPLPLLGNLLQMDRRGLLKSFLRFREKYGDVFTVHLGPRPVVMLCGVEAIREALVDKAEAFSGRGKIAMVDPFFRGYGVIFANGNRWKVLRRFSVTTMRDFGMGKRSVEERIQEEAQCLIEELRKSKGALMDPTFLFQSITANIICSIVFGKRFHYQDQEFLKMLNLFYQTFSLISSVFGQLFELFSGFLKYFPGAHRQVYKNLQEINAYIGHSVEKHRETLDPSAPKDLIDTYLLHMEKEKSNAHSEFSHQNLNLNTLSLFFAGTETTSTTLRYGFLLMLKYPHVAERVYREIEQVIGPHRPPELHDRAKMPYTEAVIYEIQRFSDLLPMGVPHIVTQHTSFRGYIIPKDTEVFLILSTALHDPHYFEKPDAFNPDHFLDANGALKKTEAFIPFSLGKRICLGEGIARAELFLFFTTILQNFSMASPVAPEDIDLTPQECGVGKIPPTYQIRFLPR

CYP2C9 = CYP2C9 (Homo sapiens, UniProt P11712); test: Metabolism by recombinantly expressed CYP enzymes
CYP2D6 = CYP2D6 (Homo sapiens, UniProt P10635); test: In vitro CYP inhibition in human liver microsomes; assay type: in vitro ADME; set-up: purchased Corning-Gentest
[1] = Metabolic profile of entrectinib in human hepatocytes
CYP1A2 [2] = molecular target: T5, CYP1A2 (Homo sapiens, UniProt P05177); test: Metabolism by recombinantly expressed CYP enzymes
T5 sequence (P05177 1-516): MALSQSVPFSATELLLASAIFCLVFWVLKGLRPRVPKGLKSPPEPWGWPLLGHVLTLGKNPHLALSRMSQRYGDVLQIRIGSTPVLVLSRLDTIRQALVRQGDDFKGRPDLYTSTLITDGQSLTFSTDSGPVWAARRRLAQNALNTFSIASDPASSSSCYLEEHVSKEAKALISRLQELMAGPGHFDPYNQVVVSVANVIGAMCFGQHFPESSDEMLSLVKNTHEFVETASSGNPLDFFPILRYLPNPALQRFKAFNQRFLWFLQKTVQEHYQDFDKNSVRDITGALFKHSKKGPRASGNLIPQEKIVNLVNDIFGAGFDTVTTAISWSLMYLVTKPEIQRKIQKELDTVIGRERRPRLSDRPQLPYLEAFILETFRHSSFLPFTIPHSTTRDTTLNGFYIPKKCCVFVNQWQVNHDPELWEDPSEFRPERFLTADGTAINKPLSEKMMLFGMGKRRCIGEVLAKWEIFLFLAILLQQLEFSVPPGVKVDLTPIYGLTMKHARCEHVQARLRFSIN

CYP3A4/5 = test: In vitro CYP inhibition (direct and time-dependent) in human liver microsomes; assay type: in vitro ADME
[3] = Intrinsic clearance in long-term micropatterned co-cultured human hepatocytes; assay type: in vitro ADME
[4] = system: human CYPs 1A2, 2B6, 2C8, 2C9, 2C19, 2D6 and 3A; test: In vitro CYP inhibition in human liver microsomes, CYPs not named one by one; assay type: in vitro ADME; details: entrectinib: all but CYP3A4/5, M5: all but CYP2C8, read-out: IC50 for the other CYPs tested
Procedure: In vitro induction of CYP mRNA (CYPs 1A2, 2C8, 2C9 and 3A4) or enzyme activity (CYPs 1A2, 2C19 and 3A4) was assessed in human hepatocytes.

CYP2C19 = CYP2C19 (Homo sapiens, UniProt P33261); test: In vitro CYP inhibition in human liver microsomes; assay type: in vitro ADME; set-up: purchased Corning-Gentest
[5] = Estimated free plasma Cmax in patients treated at 600 mg QD; assay type: in vivo, human; details: unbound fraction of 1% used
CYP1A2 [6] = molecular target: T5, CYP1A2; test: In vitro CYP inhibition in human liver microsomes; assay type: in vitro ADME; set-up: purchased Corning-Gentest

T2 sequence (P08183 whole entry): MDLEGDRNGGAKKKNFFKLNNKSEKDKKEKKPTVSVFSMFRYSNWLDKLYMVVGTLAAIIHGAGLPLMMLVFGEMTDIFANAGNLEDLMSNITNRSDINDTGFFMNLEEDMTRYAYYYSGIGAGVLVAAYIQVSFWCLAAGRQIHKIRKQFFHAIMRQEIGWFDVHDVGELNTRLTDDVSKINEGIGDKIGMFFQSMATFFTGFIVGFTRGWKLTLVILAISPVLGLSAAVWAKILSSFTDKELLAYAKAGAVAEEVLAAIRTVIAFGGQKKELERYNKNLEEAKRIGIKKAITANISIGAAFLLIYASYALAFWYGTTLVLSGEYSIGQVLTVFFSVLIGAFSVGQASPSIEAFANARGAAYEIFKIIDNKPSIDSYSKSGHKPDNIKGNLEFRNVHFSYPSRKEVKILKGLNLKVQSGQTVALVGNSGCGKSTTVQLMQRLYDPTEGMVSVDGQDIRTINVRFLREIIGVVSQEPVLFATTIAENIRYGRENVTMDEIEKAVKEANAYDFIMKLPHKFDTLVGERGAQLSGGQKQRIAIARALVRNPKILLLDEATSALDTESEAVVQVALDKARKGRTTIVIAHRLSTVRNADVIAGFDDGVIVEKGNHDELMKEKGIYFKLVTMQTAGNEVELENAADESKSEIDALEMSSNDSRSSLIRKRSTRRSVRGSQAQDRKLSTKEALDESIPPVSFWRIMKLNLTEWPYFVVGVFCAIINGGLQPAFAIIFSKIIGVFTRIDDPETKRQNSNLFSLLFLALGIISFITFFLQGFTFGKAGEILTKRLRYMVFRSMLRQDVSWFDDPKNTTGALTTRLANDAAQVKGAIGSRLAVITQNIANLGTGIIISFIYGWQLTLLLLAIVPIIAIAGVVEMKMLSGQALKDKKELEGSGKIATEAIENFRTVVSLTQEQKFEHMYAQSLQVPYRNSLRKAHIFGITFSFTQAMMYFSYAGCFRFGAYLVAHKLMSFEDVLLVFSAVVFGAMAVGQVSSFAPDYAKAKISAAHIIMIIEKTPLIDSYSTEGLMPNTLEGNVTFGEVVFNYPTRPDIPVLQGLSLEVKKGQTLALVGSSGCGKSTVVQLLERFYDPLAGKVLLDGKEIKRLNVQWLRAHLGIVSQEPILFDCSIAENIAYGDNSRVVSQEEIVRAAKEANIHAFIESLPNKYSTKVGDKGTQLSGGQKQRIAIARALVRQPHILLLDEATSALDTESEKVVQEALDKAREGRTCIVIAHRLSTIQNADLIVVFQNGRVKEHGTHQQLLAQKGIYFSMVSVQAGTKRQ
Sequence of CYP2C9 (P11712 whole entry): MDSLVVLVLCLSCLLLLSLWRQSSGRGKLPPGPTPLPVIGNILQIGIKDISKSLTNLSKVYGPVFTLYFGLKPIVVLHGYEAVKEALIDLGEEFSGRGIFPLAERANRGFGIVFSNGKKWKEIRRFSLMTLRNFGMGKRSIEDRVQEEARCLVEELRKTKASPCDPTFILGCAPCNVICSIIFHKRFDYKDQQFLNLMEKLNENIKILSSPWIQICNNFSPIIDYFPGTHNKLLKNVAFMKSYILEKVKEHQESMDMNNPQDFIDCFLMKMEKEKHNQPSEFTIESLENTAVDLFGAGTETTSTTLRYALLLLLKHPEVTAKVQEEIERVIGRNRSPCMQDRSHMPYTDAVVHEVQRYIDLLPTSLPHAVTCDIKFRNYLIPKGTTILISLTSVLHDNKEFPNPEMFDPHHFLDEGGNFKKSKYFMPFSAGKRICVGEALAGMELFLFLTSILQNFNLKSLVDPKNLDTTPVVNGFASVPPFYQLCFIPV
Sequence of CYP2D6 (P10635 whole entry): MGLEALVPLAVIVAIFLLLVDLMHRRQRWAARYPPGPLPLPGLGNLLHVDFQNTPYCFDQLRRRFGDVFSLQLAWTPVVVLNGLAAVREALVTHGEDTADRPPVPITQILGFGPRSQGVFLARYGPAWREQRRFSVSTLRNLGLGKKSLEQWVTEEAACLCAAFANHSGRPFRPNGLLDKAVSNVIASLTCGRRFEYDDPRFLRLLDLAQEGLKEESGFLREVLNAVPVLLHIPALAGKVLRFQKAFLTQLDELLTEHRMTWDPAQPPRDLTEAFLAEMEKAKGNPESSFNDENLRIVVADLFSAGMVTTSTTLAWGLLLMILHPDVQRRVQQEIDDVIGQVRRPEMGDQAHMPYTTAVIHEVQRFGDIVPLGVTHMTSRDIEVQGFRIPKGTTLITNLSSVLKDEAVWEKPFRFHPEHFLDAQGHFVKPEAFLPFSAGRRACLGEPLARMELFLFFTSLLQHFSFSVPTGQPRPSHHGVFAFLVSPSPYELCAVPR
Sequence of CYP2C19 (P33261 whole entry): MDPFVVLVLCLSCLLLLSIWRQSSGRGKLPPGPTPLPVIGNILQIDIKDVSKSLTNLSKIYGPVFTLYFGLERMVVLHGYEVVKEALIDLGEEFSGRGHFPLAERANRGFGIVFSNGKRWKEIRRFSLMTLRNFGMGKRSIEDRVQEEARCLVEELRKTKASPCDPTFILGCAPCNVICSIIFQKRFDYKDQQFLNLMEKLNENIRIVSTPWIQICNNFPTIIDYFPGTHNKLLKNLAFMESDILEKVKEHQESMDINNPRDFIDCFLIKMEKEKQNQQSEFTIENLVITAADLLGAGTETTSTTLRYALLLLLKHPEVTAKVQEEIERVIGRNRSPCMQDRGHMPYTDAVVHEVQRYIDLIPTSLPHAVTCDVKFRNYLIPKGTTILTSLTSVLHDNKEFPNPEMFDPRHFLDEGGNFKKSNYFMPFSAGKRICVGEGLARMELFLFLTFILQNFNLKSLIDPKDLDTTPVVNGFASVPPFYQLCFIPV

O=C(Nc1n[nH]c2ccc(Cc3cc(F)cc(F)c3)cc12)c1ccc(N2CCNCC2)cc1NC1CCOCC1 [M5]
M5 Metabolism (CYP2C8): -
pIC50 (MDR1 (P-gp)): 5.00
M5 Metabolism (CYP1A1): +
M5 Metabolism (CYP2B6): -
M5 Metabolism (CYP2C9): -
pIC50 (CYP2D6): < 5.00
share of entrectinib metabolism [1]: 41%
share of total drug-related material [1]: 12%
M5 Metabolism (CYP1A2 [2]): -
pIC50 (CYP3A4/5; human liver microsomes, read-out: IC50): < 5.00
intrinsic clearance relative to entrectinib [3]: approximately twofold lower intrinsic clearance than entrectinib
pIC50 [4]: < 5.00
pIC50 (CYP2C19): < 5.00
estimated free Cmax in plasma [5]: 13.4 nM
pIC50 (CYP1A2 [6]): < 5.00

CN1CCN(c2ccc(C(=O)Nc3n[nH]c4ccc(Cc5cc(F)cc(F)c5)cc34)c(NC3CCOCC3)c2)CC1 [Entrectinib]
Entrectinib Metabolism to M5 (CYP2C8): +
Entrectinib Metabolism to other Products (CYP2C8): +
pIC50 (MDR1 (P-gp)): 5.88 and 5.89
Entrectinib Metabolism to M5 (CYP1A1): ++
Entrectinib Metabolism to other Products (CYP1A1): +
Entrectinib Metabolism to M5 (CYP2B6): -
Entrectinib Metabolism to other Products (CYP2B6): -
Entrectinib Metabolism to M5 (CYP2C9): -
Entrectinib Metabolism to other Products (CYP2C9): -
pIC50 (CYP2D6): < 5.00
drug metabolized ([1]; after 120 min of incubation): 29%
Entrectinib Metabolism to M5 (CYP1A2 [2]): -
Entrectinib Metabolism to other Products (CYP1A2 [2]): -
pIC50 (CYP3A4/5; human, microsomes): 5.70
pIC50 (CYP2C19): < 5.00
pIC50 (CYP1A2 [6]): < 5.00
